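Tested at 5 concentrations; 48 h exposure; 96-well plates; endpoints linearly interpolated, else capped at highest concentration. GI50 is the concentration that inhibits growth by half.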 Activity calls are given as the source filed them. Cut-off read from the data, not from the text of the source: active = GI50 up to about 1.1 µM and inactive = higher.
Experiments:
Assay in all cases: inhibition of tumour cell growth, NCI panel, 48 h
SK-MEL-2 = system: SK-MEL-2
HL-60 = system: HL-60
MOLT-4 = system: MOLT-4
OVCAR-8 = system: OVCAR-8
HCT-116 = system: HCT-116
Malme-3M = system: Malme-3M
LOX IMVI = system: LOX IMVI
OVCAR-5 = system: OVCAR-5
SK-MEL-5 = system: SK-MEL-5
A498 = system: A498
OVCAR-4 = system: OVCAR-4
OVCAR-3 = system: OVCAR-3
UACC-62 = system: UACC-62
EKVX = system: EKVX
UO-31 = system: UO-31
HCC 2998 = system: HCC 2998
SN12C = system: SN12C
ACHN = system: ACHN
NCI-H460 = system: NCI-H460
HOP-92 = system: HOP-92

Measured: GI50

N#Cc1c(C#N)c(-c2ccccc2)n(Cc2ccccc2)c1N
inactive: SK-MEL-2 > 100 µM | HL-60 > 100 µM | MOLT-4 > 100 µM | OVCAR-8 28.4 µM | HCT-116 > 100 µM | Malme-3M > 100 µM | LOX IMVI > 100 µM | OVCAR-5 > 100 µM | SK-MEL-5 > 100 µM | A498 > 100 µM | OVCAR-4 > 100 µM | OVCAR-3 > 100 µM | UACC-62 > 100 µM | EKVX > 100 µM | UO-31 > 100 µM | HCC 2998 > 100 µM | SN12C > 100 µM | ACHN > 100 µM

CN1c2ccccc2N(C)C23N(C)c4ccccc4N(C)C12N(C)c1ccccc1N3C (stereo unspecified)
inactive: SK-MEL-2 > 100 µM | HL-60 > 100 µM | MOLT-4 > 100 µM | OVCAR-8 > 100 µM | HCT-116 > 100 µM | Malme-3M > 100 µM | LOX IMVI > 100 µM | OVCAR-5 > 100 µM | SK-MEL-5 > 100 µM | A498 > 100 µM | OVCAR-3 33.6 µM | UACC-62 > 100 µM | EKVX > 100 µM | UO-31 > 100 µM | NCI-H460 > 100 µM | HCC 2998 > 100 µM | SN12C > 100 µM | ACHN > 100 µM | HOP-92 22.9 µM

Nc1ccn(CC(CO)CC(c2ccccc2)P(=O)(O)O)c(=O)n1 (stereo unspecified)
inactive: SK-MEL-2 > 100 µM | HL-60 > 100 µM | MOLT-4 > 100 µM | OVCAR-8 > 100 µM | HCT-116 > 100 µM | Malme-3M > 100 µM | LOX IMVI > 100 µM | OVCAR-5 > 100 µM | SK-MEL-5 > 100 µM | A498 > 100 µM | OVCAR-3 > 100 µM | UACC-62 > 100 µM | EKVX > 100 µM | UO-31 > 100 µM | NCI-H460 > 100 µM | HCC 2998 > 100 µM | SN12C > 100 µM | ACHN > 100 µM | HOP-92 > 100 µM

Cc1ccc([S+]([O-])c2sccc2C=O)cc1 (stereo unspecified)
inactive: SK-MEL-2 43.6 µM | HL-60 21 µM | MOLT-4 21.3 µM | OVCAR-8 23.1 µM | HCT-116 16.4 µM | Malme-3M 23.4 µM | LOX IMVI 14.4 µM | OVCAR-5 49.2 µM | SK-MEL-5 29.1 µM | A498 > 100 µM | OVCAR-4 29 µM | OVCAR-3 > 10 µM | UACC-62 19.3 µM | EKVX 26.2 µM | UO-31 70.1 µM | NCI-H460 21.9 µM | HCC 2998 32.7 µM | SN12C 22.9 µM | ACHN 63 µM

NCCCCNCCCNC(=O)c1nc(-c2csc(CCN)n2)sc1Cl
inactive: SK-MEL-2 > 100 µM | HL-60 > 100 µM | MOLT-4 > 100 µM | OVCAR-8 > 100 µM | HCT-116 > 100 µM | Malme-3M > 100 µM | OVCAR-5 > 100 µM | SK-MEL-5 > 100 µM | A498 > 100 µM | OVCAR-4 > 100 µM | OVCAR-3 > 100 µM | UACC-62 > 100 µM | EKVX > 100 µM | UO-31 > 100 µM | NCI-H460 > 100 µM | HCC 2998 > 100 µM | SN12C > 100 µM | ACHN > 100 µM | HOP-92 > 100 µM

COC(=O)C1=C(C[S+]([O-])c2ccccc2[N+](=O)[O-])ON(C)C1c1ccccc1 (stereo unspecified)
inactive: SK-MEL-2 62.1 µM | HL-60 17.4 µM | MOLT-4 31 µM | OVCAR-8 21.3 µM | HCT-116 25.5 µM | Malme-3M > 100 µM | LOX IMVI 13.3 µM | OVCAR-5 > 100 µM | SK-MEL-5 38.8 µM | A498 > 100 µM | OVCAR-4 66.7 µM | OVCAR-3 40.5 µM | UACC-62 28.8 µM | EKVX 55.6 µM | UO-31 46.8 µM | NCI-H460 > 100 µM | HCC 2998 15.8 µM | SN12C 19 µM | ACHN 31.2 µM

CC1CC(c2ccc(Cl)c(Cl)c2)=Nc2ccccc2S1 (stereo unspecified)
inactive: HL-60 > 100 µM | MOLT-4 > 100 µM | OVCAR-8 > 100 µM | HCT-116 > 100 µM | Malme-3M > 100 µM | LOX IMVI > 100 µM | OVCAR-5 > 100 µM | SK-MEL-5 > 100 µM | A498 > 100 µM | OVCAR-4 > 100 µM | OVCAR-3 44.5 µM | UACC-62 > 100 µM | EKVX > 100 µM | UO-31 > 100 µM | NCI-H460 > 100 µM | HCC 2998 > 100 µM | SN12C > 100 µM | ACHN > 100 µM | HOP-92 > 100 µM

CCN(CC)CCOC(NC(C)=O)(c1ccccc1)c1ccccc1
inactive: HL-60 > 100 µM | MOLT-4 > 100 µM | OVCAR-8 > 100 µM | HCT-116 > 100 µM | Malme-3M > 100 µM | OVCAR-5 > 100 µM | SK-MEL-5 > 100 µM | A498 > 100 µM | OVCAR-4 > 100 µM | UACC-62 > 100 µM | EKVX > 100 µM | UO-31 > 100 µM | NCI-H460 > 100 µM | HCC 2998 > 100 µM | SN12C > 100 µM | ACHN > 100 µM | HOP-92 > 100 µM

CC(=O)C1(Cc2cccc3ccccc23)S(=O)(=O)OCCOS1(=O)=O
inactive: HL-60 15.2 µM | MOLT-4 29.1 µM | OVCAR-8 19.5 µM | HCT-116 19.6 µM | Malme-3M 17.3 µM | LOX IMVI 12.1 µM | OVCAR-5 17.6 µM | SK-MEL-5 12.2 µM | A498 19 µM | OVCAR-4 21.7 µM | OVCAR-3 19.7 µM | UACC-62 14.6 µM | EKVX 18.5 µM | UO-31 15.8 µM | NCI-H460 17.3 µM | HCC 2998 17.3 µM | SN12C 11.9 µM | ACHN 18.7 µM | HOP-92 15.5 µM

C[n+]1c2ccccc2c(NC(CCCNC(=N)N)C(=O)O)c2ccccc21 (stereo unspecified)
inactive: SK-MEL-2 > 100 µM | HL-60 39.1 µM | MOLT-4 > 100 µM | OVCAR-8 > 100 µM | HCT-116 > 100 µM | Malme-3M > 100 µM | OVCAR-5 > 100 µM | SK-MEL-5 85.9 µM | A498 > 100 µM | OVCAR-4 > 100 µM | OVCAR-3 > 100 µM | UACC-62 > 100 µM | EKVX > 100 µM | UO-31 75.2 µM | NCI-H460 > 100 µM | HCC 2998 > 100 µM | SN12C > 100 µM | ACHN > 100 µM | HOP-92 > 100 µM

CC(=O)Nc1c(S(=O)(=O)c2ccccc2)c(C)c(C)n1CCN(C)C
inactive: SK-MEL-2 > 100 µM | HL-60 > 100 µM | MOLT-4 > 100 µM | OVCAR-8 > 100 µM | HCT-116 > 100 µM | Malme-3M > 100 µM | OVCAR-5 > 100 µM | SK-MEL-5 > 100 µM | A498 > 100 µM | OVCAR-4 > 100 µM | OVCAR-3 > 100 µM | UACC-62 > 100 µM | EKVX > 100 µM | UO-31 > 100 µM | NCI-H460 > 100 µM | HCC 2998 > 100 µM | SN12C > 100 µM | ACHN > 100 µM | HOP-92 > 100 µM

— ChEMBL document CHEMBL1201862, “PubChem BioAssay data set” (2004)
